In patent US12594289B2, “Potentiation of antibiotic effect” (The University of North Carolina at Chapel Hill, priority 2017, dated 2026):
≈ marks a conversion by molar mass, not a printed value. Read-outs that look alike come from different tables or passages of the source.

What was measured:
Format in all cases: cell-based, Staphylococcus aureus
[1] = tested on: S. aureus HG003; assay: Propidium iodide uptake, membrane permeability (Example 11)
[2] = tested on: S. aureus HG003; assay: Killing by permeabilizing molecules in combination with tobramycin over 24 hours (Example 11)
[3] = tested on: S. aureus HG003; assay: microbe, parasite or virus in culture; conditions: for MIC: Staphylococcus aureus
[4] = tested on: S. aureus HG003; assay: Killing in the presence of protein synthesis inhibitor linezolid (Example 8); conditions: tobramycin 58 μg/ml, linezolid 50 μg/ml
[5] = tested on: S. aureus HG003; assay: Killing of S. aureus by tobramycin with or without rhamnolipids (Example 4); conditions: tobramycin 58 μg/ml alone
[6] = tested on: S. aureus HG003 menD mutant (SCV)
[7] = tested on: S. aureus HG003, arsenate treated; assay: Killing of low energy (arsenate treated) S. aureus (Example 6); conditions: tobramycin 58 μg/ml, arsenate 1 mM

Structure (SMILES)	lethality to S. aureus alone [1]	permeabilization of S. aureus (propidium iodide uptake) [1]	effect of the presence of P. aeruginosa supernatant on MIC [3]	MIC ([3]; HG003)	MIC ([3]; PA14 / PAO1)	further results
CCCCCCCCCCCC(=O)OCC(O)CO (stereo not drawn) [glycerol monolaureate]	not lethal	permeabilize				potentiation of tobramycin killing over 24 hours [2]: significant potentiation
Cc1onc(-c2ccccc2)c1C(=O)N[C@@H]1C(=O)N2[C@@H]1SC(C)(C)[C@@H]2C(=O)O [oxacillin]			not affected	0.39 µg/mL (≈ 0.971 µM)	0.39 µg/mL (≈ 0.971 µM)	
CCCCCC/C=C\CCCCCCCC(=O)O [palmitoleic acid]	not lethal	permeabilize				potentiation of tobramycin killing over 24 hours ([2]; in combination with tobramycin): significant potentiation
NC[C@H]1O[C@H](O[C@H]2[C@H](O)[C@@H](O[C@H]3O[C@H](CO)[C@@H](O)[C@H](N)[C@H]3O)[C@H](N)C[C@@H]2N)[C@H](N)C[C@@H]1O [tobramycin]					3.12 to 6.25 µg/mL (≈ 6.68 to 13.4 µM)	killing in the presence of linezolid [4]: fails to kill; MIC ([3]; PA14): 0.39 µg/mL (≈ 0.834 µM); survivors after 12 hours [5]: 10^4; susceptibility of the menD mutant [6]: resistant; killing of S. aureus under arsenate-induced low ATP [7]: fails to kill
CN[C@H](CC(C)C)C(=O)N[C@H]1C(=O)N[C@@H](CC(N)=O)C(=O)N[C@H]2C(=O)N[C@H]3C(=O)N[C@H](C(=O)N[C@H](C(=O)O)c4cc(O)cc(O)c4-c4cc3ccc4O)[C@H](O)c3ccc(c(Cl)c3)Oc3cc2cc(c3O[C@@H]2O[C@H](CO)[C@@H](O)[C@H](O)[C@H]2O[C@H]2C[C@](C)(N)[C@H](O)[C@H](C)O2)Oc2ccc(cc2Cl)[C@H]1O [vancomycin]			not affected	1.25 µg/mL (≈ 0.863 µM)	1.25 µg/mL (≈ 0.863 µM)	
